Test results: ChEMBL document CHEMBL1201862, “PubChem BioAssay data set” (2004)
Calls of active or inactive are those of the source. Unless noted, the calls are words filed in the database; no cut-off is given here.

Key:
[1] = Late stage assay provider results from the probe development effort to identify inhibitors of the Plasmodium falciparum M18 Aspartyl Aminopeptidase (M18AAP): radiolabel-based cell-based dose response assay to identify compounds that inhibit P. falciparum growth in RBCs, Set 2..; type: functional
[2] = CTGF mRNA reduction in DLD1 cells – cell-based, DLD1 colon cancer, RT-qPCR, cherry-pick, dose response (AID 1053122); type: functional; settings: Cancer cell lines
[3] = viability loss in HEK293T cells – cell-based, CellTiter-Glo luminescence, dry powder, set 6, cytotoxicity control, dose response (AID 651949); type: functional; settings: HEK293
[4] = HepG2 cell viability loss – cherry-picked samples, cytotoxicity control, dose response (AID 1053183); type: functional, cell-based
[5] = A549 cell viability loss – cherry-picked samples, cytotoxicity control, dose response (AID 1053184); type: functional, cell-based
[6] = HEK293 cell viability loss – cherry-picked samples, cytotoxicity control, dose response (AID 1053185); type: functional, cell-based
[7] = reduced cellular PGC1a acetyl-lysine signal – cell-based, cherry-picked samples, dose response (AID 720514); type: functional;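 further: potency may reflect raised or lowered acetylation signal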
Vasopressin V2 receptor = Vasopressin V2 receptor (Homo sapiens, UniProt P30518); assay: Late-stage results from the probe development effort to identify antagonists of arginine vasopressin receptor 1a (AVPR1a): fluorescence-based cell-based dose response AVPR2 inhibition counterscreen assay.; type: functional
[8] = Late-stage results from the probe development effort to identify antagonists of arginine vasopressin receptor 1a (AVPR1a): fluorescence-based cell-based dose response OXTR inhibition counterscreen assay.; type: functional
[9] = Late-stage results from the probe development effort to identify antagonists of arginine vasopressin receptor 1a (AVPR1a): fluorescence-based cell-based dose response AVPR1a inhibition assay.; type: functional
Vasopressin V1b receptor = Vasopressin V1b receptor (Homo sapiens, UniProt P47901); assay: Late-stage results from the probe development effort to identify antagonists of arginine vasopressin receptor 1a (AVPR1a): fluorescence-based cell-based dose response AVPR1b inhibition counterscreen assay.; type: functional
[10] = molecular target: Potassium voltage-gated channel subfamily KQT member 2 (Rattus norvegicus, UniProt O88943); assay: block of rat KCNQ2 potassium channel – cell-based, FluxOR thallium flux, concentration-response, selectivity assay for TASK1 inhibitor project, SAR follow-up (AID 652192); type: functional
[11] = molecular target: Potassium channel subfamily K member 3 (Rattus norvegicus, UniProt O54912); assay: SAR analysis for the identification of selective inhibitors of the two-pore domain potassium channel TASK1(KCNK3):Automated Electrophysiology.; type: functional
[12] = molecular target: T1, Potassium channel subfamily K member 9 (Homo sapiens, UniProt Q9NPC2); assay: TASK3 channel blockers, electrophysiology – cell-based, automated electrophysiology, selectivity assay for TASK1 (KCNK3) inhibitor project, SAR follow-up (AID 652210); type: functional
[13] = molecular target: Potassium channel subfamily K member 3 (Homo sapiens, UniProt O14649); assay: inhibition of human KCNK3 channel flux – CHO cells, FluxOR thallium flux, SAR follow-up (AID 652212); type: functional
[14] = molecular target: T1, Potassium channel subfamily K member 9; assay: KCNK9 flux blockade, concentration-response – cell-based, FluxOR thallium flux, selectivity assay for TASK1 inhibitor project, SAR follow-up (AID 652211); type: functional;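 further: potency is for inhibitors of the channel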
[15] = molecular target: Metabotropic glutamate receptor 5 (Rattus norvegicus, UniProt P31424); assay: Identification of a glycine sulfonamide based non-MPEP site positive allosteric potentiator (PAM) of mGlu5 (calcium_assay).; type: functional
Metabotropic glutamate receptor 5, sequence (P31424 whole entry): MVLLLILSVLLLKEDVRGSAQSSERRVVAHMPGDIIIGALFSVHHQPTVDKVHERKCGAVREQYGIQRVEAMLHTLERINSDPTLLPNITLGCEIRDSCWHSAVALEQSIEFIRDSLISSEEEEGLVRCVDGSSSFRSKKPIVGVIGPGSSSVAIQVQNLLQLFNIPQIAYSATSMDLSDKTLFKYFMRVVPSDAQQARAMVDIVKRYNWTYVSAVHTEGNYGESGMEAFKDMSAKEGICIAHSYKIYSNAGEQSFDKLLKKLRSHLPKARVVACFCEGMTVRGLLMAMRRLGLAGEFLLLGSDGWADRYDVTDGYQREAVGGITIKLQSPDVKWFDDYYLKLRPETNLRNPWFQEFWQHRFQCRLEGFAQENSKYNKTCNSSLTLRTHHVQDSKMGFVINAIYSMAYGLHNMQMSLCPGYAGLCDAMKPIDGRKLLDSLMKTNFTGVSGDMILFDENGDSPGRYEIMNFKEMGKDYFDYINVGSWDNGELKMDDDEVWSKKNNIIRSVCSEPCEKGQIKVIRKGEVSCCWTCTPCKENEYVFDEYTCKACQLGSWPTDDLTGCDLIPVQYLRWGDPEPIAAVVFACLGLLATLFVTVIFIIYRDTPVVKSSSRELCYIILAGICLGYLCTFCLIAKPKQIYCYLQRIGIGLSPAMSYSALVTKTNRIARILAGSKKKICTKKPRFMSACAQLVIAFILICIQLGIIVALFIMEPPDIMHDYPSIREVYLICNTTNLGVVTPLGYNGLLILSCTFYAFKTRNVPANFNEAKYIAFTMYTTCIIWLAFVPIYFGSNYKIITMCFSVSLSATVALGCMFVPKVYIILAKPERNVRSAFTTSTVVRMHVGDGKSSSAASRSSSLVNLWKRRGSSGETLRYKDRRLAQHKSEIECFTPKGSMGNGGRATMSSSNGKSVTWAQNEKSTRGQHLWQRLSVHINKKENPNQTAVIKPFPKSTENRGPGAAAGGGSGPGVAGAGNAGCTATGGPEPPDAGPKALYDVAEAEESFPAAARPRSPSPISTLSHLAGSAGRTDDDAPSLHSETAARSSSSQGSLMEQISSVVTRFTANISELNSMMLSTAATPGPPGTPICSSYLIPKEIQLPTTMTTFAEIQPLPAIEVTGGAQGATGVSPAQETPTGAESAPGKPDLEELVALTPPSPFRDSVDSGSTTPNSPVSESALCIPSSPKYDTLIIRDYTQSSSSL

T1 sequence (Q9NPC2 whole entry): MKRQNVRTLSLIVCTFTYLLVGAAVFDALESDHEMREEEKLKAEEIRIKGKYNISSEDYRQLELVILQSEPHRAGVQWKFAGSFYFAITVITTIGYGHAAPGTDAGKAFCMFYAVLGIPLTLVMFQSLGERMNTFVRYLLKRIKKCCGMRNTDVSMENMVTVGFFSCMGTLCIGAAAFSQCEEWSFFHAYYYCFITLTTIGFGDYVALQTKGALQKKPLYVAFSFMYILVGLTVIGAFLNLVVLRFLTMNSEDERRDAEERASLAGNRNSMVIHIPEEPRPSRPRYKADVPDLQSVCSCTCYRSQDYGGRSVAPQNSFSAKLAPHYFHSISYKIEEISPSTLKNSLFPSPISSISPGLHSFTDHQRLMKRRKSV
Vasopressin V1b receptor, sequence (P47901 whole entry): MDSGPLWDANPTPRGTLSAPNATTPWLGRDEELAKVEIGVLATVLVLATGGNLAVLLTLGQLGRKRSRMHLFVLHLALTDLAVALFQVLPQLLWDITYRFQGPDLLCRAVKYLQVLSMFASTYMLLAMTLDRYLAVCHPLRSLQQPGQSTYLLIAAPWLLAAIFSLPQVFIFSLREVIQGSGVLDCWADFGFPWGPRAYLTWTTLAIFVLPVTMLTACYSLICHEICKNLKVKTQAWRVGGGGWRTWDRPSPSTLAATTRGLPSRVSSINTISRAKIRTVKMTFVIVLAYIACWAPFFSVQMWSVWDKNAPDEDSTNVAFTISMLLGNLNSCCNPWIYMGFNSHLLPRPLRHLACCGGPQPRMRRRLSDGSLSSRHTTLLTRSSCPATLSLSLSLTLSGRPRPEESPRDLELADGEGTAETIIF
Potassium channel subfamily K member 3 (Rattus norvegicus, UniProt O54912), sequence (O54912 whole entry, the tested form may be a part): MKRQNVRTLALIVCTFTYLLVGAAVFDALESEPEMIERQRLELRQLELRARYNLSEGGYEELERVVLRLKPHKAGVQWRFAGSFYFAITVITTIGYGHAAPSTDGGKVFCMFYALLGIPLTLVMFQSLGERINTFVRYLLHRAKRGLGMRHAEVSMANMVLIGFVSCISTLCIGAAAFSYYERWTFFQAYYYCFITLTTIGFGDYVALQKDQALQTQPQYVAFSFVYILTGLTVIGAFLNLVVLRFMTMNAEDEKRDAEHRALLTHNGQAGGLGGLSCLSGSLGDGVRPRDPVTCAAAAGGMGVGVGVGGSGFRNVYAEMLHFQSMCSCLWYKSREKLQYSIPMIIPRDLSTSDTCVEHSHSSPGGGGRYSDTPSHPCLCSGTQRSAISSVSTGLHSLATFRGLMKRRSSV
Potassium voltage-gated channel subfamily KQT member 2, sequence (O88943 whole entry, the tested form may be a part): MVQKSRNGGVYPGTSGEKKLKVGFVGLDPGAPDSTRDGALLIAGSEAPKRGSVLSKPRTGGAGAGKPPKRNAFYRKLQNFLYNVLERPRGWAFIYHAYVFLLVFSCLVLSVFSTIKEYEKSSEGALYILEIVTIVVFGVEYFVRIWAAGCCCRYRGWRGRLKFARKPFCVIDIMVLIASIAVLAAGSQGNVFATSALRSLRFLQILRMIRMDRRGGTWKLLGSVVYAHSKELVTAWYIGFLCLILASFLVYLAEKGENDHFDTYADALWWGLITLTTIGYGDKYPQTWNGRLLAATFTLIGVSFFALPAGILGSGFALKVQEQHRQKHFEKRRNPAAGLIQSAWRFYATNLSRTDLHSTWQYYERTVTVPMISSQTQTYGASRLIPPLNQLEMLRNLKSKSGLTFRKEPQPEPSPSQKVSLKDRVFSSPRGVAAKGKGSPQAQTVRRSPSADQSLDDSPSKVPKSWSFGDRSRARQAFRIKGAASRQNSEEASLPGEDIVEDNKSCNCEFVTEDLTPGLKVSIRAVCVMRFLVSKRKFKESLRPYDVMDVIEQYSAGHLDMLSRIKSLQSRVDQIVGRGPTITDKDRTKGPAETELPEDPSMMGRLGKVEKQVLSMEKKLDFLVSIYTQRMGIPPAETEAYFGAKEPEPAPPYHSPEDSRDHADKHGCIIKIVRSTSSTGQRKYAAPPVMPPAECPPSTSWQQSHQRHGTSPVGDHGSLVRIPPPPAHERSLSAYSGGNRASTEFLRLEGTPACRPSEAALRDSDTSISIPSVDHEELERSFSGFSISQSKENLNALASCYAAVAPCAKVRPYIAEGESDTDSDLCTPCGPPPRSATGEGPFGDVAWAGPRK
Potassium channel subfamily K member 3 (Homo sapiens, UniProt O14649), sequence (O14649 whole entry): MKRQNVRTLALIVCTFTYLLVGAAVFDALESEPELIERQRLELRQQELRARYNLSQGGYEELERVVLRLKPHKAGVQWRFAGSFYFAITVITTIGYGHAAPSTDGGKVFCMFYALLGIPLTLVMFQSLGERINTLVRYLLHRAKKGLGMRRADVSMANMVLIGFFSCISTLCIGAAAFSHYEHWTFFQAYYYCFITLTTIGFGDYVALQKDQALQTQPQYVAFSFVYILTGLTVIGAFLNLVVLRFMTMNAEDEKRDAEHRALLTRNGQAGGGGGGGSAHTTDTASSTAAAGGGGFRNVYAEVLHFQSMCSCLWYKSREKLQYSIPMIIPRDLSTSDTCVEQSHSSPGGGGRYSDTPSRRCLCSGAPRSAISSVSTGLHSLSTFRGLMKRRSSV
Vasopressin V2 receptor, sequence (P30518 whole entry): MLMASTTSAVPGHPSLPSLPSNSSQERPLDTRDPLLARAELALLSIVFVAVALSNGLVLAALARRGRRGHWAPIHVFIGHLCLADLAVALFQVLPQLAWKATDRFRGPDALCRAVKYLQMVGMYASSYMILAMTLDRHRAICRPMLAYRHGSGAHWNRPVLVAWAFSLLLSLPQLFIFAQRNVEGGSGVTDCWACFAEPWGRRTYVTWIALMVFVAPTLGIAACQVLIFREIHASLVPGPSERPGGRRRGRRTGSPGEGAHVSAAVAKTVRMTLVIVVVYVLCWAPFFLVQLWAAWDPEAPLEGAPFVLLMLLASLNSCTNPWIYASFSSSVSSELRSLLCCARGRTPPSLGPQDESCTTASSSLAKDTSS

## CCN(CC)Cc1cc(Nc2ccnc3cc(Cl)ccc23)ccc1O
[1]
  IC50: 190 nM (active)

## CO[C@@H](CN(C)S(=O)(=O)c1ccc(C)cc1)[C@@H](C)CN([C@H](C)CO)S(=O)(=O)c1cccc(Cl)c1
[2]
  AC50: 18.6 µM (active)

## CS(=O)(=O)c1cccc(-c2nnc(SCc3ccccc3)o2)c1
[3]
  AC50: > 52 µM (inactive)

## Cc1cccc(-c2ccc([C@@H]3[C@@H]4CN(Cc5cccc(F)c5)C[C@H]3N4)cc2)c1
[4]
  AC50: 17.7 µM (active)
[5]
  AC50: 35.4 µM (active)
[6]
  AC50: 27.1 µM (active)
[7]
  AC50: 20.4 µM (active)

## Cc1ccc(N2CCC(C(=O)N(CC3CC3)c3ccc(Cl)cc3)CC2)nc1
Vasopressin V2 receptor
  IC50: 12.3 µM (inactive)
[8]
  IC50: 12.4 µM (inactive)
[9]
  IC50: 20.1 nM (active)
Vasopressin V1b receptor
  IC50: 20.8 µM (inactive)

## CCOc1ccccc1C(=O)Nc1cccc(NC(=O)c2cccc(C)c2)c1
[10]
  IC50: 1.88 µM (active)
[11]
  IC50: 11 nM (active)
[12]
  IC50: 380 nM (active)
[13]
  IC50: 10 nM (active)
[14]
  IC50: 440 nM (active)

## O=C(Nc1cccc(Cl)c1)[C@H]1CCc2ccccc2N1S(=O)(=O)c1cccs1
[15]
  EC50: > 30 µM (inactive)
